# Assay results taken from ChEMBL document CHEMBL1201862, “PubChem BioAssay data set” (2004).
# Calls of active or inactive are those of the source.
# Columns and labels:
# [1] = target: T1, Sentrin-specific protease 6 (Homo sapiens, UniProt Q9GZR1); experiment: SAR Analysis of small molecule inhibitors of Sentrin-specific protease 6 (SENP6) using a Luminescent assay. [Related pubchem assays (depositor defined):AID2582, AID2599]; assay type: functional
# T1 sequence (Q9GZR1 whole entry): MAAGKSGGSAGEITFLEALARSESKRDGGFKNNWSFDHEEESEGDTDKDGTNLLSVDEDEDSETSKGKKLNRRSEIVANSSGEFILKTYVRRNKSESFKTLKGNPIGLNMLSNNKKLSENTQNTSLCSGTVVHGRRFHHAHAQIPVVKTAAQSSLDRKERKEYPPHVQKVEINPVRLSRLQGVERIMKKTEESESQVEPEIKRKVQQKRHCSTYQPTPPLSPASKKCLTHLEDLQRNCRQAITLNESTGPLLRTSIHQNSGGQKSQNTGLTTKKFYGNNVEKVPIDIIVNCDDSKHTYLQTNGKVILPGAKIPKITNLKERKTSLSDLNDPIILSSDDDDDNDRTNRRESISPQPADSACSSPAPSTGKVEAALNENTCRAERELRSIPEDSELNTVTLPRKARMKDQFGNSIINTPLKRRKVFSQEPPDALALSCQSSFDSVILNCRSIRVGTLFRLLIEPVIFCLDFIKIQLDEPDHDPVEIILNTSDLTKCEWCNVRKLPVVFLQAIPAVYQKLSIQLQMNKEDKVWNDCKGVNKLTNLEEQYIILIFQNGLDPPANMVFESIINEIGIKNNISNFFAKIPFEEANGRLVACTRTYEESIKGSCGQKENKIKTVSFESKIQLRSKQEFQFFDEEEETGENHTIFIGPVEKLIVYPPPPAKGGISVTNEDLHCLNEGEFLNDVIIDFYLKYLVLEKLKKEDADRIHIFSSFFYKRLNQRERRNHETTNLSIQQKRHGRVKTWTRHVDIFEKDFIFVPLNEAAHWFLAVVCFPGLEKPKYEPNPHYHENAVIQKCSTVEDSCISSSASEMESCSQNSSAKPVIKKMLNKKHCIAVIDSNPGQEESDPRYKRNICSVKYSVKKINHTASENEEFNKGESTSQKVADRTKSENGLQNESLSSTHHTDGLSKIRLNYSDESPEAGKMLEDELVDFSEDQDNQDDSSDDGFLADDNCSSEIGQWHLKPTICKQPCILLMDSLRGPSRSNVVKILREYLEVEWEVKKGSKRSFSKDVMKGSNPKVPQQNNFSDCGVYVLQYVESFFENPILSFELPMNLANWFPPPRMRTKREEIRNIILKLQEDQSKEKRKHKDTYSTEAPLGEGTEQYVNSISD
# [2] = target: T2, Sentrin-specific protease 7 (Homo sapiens, UniProt Q9BQF6); experiment: inhibition of human SENP7 cleavage activity – biochemical, luminescence, SAR follow-up (AID 504497); assay type: functional
# T2 sequence (Q9BQF6 whole entry): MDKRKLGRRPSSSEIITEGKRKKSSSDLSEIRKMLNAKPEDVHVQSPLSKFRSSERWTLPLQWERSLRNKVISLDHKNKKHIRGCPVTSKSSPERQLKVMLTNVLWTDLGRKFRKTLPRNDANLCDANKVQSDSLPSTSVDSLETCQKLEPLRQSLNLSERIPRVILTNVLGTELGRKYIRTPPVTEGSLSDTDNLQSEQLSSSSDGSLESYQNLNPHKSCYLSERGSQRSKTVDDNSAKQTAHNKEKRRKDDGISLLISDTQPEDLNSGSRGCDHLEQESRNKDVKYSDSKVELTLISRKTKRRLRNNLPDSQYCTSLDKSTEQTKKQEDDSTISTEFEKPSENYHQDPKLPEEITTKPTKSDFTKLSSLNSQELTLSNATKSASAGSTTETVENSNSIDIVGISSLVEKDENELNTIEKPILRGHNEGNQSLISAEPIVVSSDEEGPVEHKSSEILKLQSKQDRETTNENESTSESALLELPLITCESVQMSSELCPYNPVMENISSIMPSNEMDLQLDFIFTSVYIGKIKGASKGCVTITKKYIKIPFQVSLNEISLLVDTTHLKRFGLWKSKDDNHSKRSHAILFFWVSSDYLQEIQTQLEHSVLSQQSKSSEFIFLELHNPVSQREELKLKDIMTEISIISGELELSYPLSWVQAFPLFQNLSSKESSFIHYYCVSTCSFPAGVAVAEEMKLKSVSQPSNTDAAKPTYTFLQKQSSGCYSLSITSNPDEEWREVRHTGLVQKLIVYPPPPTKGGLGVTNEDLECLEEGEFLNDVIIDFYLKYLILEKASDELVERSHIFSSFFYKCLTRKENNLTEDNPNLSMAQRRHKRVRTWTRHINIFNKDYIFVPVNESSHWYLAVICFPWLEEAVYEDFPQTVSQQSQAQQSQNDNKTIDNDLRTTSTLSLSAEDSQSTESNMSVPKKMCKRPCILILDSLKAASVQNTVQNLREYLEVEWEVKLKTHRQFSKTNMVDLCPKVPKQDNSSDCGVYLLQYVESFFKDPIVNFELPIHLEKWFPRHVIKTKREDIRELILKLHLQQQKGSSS
# [3] = target: T3, Sentrin-specific protease 8 (Homo sapiens, UniProt Q96LD8); assay type: functional;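 also: luminescence read-out of SENP8 inhibition, dose-response confirmation following an ultra-high-throughput screen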
# T3 sequence (Q96LD8 whole entry): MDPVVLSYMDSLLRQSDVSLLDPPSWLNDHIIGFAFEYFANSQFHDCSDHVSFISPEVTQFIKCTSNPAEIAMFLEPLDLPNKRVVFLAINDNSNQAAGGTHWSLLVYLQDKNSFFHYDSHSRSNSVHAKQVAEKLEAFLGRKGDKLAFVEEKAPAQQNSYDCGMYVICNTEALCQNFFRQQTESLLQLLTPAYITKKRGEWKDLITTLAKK
# [4] = target: T1, Sentrin-specific protease 6; assay type: functional
# Cytochrome P450 2D6 = Cytochrome P450 2D6 (Homo sapiens, UniProt P10635);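 also: CYP2D6 member of a cytochrome P450 panel assay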
# Caspase-3 [5] = target: T4, Caspase-3 (Homo sapiens, UniProt P42574); assay type: functional
# T4 sequence (P42574 whole entry): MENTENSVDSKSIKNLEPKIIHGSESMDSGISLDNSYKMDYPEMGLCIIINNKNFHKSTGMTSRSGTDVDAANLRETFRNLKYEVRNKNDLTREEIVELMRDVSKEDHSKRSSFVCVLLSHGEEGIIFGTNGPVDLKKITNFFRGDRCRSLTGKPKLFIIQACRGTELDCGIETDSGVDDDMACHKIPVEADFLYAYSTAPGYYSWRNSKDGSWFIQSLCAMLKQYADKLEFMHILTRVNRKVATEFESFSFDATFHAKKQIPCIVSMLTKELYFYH
# Cytochrome P450 2C9 = Cytochrome P450 2C9 (Homo sapiens, UniProt P11712)
# [6] = target: T2, Sentrin-specific protease 7; assay type: functional
# Cytochrome P450 2C19 = Cytochrome P450 2C19 (Homo sapiens, UniProt P33261); experiment: Cytochrome panel assay with activity outcomes. Panel member name: p450-cyp2c19 Compounds with AC50 equal or less than 10 uM are considered active; assay type: functional; conditions: read-out: AC50
# Caspase-3 [7] = target: T4, Caspase-3; experiment: SAR Analysis of small molecule inhibitors of Sentrin-specific proteases (SENPs) using a Caspase-3 Selectivity assay. [Related pubchem assays (depositor defined):AID2540, AID2599, AID434973, AID489001]; assay type: functional
# [8] = target: T3, Sentrin-specific protease 8; experiment: inhibition of human SENP8 cleavage activity – biochemical, luminescence, SAR follow-up (AID 504501); assay type: functional
# Streptokinase A = target: T5, Streptokinase A (Streptococcus pyogenes serotype M1, UniProt P10520); experiment: viability-normalized secreted streptokinase activity reduction – plasminogen activation absorbance, OD405, dose response (AID 1914); assay type: functional, Streptococcus pyogenes M1 GAS;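 also: secreted streptokinase activity via plasminogen activation per viability signal from cell pellet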
# T5 sequence (P10520 whole entry): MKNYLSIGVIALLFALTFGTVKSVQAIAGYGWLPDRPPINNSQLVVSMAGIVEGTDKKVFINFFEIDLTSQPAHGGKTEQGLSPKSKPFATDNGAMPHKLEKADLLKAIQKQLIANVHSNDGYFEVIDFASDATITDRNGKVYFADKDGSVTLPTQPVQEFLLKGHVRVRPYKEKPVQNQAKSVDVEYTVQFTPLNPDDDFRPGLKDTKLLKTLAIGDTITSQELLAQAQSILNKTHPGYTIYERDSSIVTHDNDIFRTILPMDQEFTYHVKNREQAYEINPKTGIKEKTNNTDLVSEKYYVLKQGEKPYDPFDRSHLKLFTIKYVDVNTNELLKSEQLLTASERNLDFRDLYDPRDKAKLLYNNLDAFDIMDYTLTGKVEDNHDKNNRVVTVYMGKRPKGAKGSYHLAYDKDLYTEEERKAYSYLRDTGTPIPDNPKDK
# [9] = target: 26S proteasome non-ATPase regulatory subunit 14 (Homo sapiens, UniProt O00487); experiment: inhibition of proteasome subunit RPN11 – biochemical, fluorescence polarization, uHTS hits, confirmation (AID 602368); assay type: functional
# Prothrombin = Prothrombin (Bos taurus, UniProt P00735); experiment: thrombin protease inhibitors – biochemical, fluorescence polarization, uHTS hits, dose response (AID 602369); assay type: functional
# Insulin-degrading enzyme [10] = target: T6, Insulin-degrading enzyme (Homo sapiens, UniProt P14735); experiment: recombinant IDE activation, cell-free – biochemical, fluorescence polarization, counter-screen for IDE activator project, dose response (AID 588681)
# T6 sequence (P14735 whole entry): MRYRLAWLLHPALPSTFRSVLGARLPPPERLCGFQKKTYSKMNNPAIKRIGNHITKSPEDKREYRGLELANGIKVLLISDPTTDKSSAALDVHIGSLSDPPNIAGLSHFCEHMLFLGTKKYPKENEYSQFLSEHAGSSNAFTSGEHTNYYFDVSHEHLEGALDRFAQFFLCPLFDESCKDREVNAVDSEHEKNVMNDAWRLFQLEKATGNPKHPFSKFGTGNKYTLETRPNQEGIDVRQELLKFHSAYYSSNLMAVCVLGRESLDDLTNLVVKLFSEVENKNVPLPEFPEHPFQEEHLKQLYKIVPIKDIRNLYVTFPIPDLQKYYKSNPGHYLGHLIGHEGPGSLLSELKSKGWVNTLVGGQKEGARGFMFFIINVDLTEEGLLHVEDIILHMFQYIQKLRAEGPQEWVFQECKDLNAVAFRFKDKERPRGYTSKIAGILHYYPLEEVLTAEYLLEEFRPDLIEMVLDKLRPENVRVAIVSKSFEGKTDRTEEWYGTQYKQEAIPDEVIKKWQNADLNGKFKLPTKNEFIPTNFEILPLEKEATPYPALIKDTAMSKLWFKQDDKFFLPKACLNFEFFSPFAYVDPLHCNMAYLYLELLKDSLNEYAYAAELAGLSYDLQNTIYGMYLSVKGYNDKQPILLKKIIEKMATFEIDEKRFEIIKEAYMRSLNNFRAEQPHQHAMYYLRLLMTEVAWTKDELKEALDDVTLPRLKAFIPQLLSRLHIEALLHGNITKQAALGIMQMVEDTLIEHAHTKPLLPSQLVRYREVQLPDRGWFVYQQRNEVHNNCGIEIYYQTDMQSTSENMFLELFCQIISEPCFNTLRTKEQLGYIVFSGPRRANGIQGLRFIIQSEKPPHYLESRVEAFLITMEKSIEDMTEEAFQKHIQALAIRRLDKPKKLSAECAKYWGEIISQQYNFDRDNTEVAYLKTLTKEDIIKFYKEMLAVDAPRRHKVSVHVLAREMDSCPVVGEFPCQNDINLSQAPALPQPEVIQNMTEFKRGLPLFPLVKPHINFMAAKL
# HEK293 [11] = experiment: membrane integrity loss in HEK cells – cell-based, fluorescence, cytotoxicity control for IDE activator project, dose response (AID 588440); assay type: functional; conditions: Homo sapiens;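 also: cytotoxicity by LDH release measuring loss of membrane integrity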
# HEK293 [12] = experiment: optical interference in Abeta FP readout, dose response, artefact control for IDE activator project, biochemical, fluorescence polarization (AID 588442); assay type: functional, cell-based; conditions: Homo sapiens
# Streptococcus = experiment: GAS UMAA2166 growth inhibition – luminescence, BacTiterGlo, counter-screen for streptokinase expression inhibitor project, dose response (AID 1915); assay type: functional, organism-based;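 also: potency for reduction of bacterial viability or growth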
# [13] = target: 72 kDa type IV collagenase (Homo sapiens, UniProt P08253); experiment: Dose Response validation of uHTS RPN11 inhibitor hits using a MMP-2 Fluorescence assay.; assay type: functional
# Insulin-degrading enzyme [14] = target: T6, Insulin-degrading enzyme; experiment: cellular IDE activation of Abeta substrate cleavage – fluorescence polarization, HEK cells, dose response (AID 588439); assay type: functional, cell-based
# [15] = test system: Streptococcus sp. 'group A'; experiment: Streptococcus pyogenes SK(-)GAS viability under kanamycin – luminescence, BacTiterGlo, confirmation, counter-screen for streptokinase expression inhibitor project, dose response (AID 1900); assay type: functional, organism-based
# Large T antigen = Large T antigen (Simian virus 40, UniProt P03070); assay type: functional, Betapolyomavirus macacae;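 also: Confirmatory-stage PubChem screen for compounds that inhibit SV40 T antigen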
# CHO = CHO cell viability loss, potency – luminescence, cytotoxicity control for TLR9-MyD88 binding inhibitor project, dose response (AID 588339); assay type: functional, cell-based, hamster; conditions: Cricetulus griseus;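 also: CHO cells stably coexpressing TLR9 and MyD88 fusions from primary screen; compound exposure lasted 48 hours before viability readout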
# Cytochrome P450 2D6, sequence (P10635 whole entry): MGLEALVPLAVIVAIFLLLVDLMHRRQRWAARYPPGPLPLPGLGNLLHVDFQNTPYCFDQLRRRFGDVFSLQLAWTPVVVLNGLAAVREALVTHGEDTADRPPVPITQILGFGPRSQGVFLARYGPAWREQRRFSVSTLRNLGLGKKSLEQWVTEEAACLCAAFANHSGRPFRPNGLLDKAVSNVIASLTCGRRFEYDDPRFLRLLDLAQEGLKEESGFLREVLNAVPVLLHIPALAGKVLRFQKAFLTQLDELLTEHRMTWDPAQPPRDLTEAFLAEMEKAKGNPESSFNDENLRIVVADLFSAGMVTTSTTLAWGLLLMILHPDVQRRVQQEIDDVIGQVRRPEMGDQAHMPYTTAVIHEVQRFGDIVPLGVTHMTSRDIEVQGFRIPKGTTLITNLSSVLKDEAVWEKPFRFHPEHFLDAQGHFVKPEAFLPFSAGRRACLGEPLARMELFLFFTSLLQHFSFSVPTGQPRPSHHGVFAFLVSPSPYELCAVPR
# Cytochrome P450 2C19, sequence (P33261 whole entry): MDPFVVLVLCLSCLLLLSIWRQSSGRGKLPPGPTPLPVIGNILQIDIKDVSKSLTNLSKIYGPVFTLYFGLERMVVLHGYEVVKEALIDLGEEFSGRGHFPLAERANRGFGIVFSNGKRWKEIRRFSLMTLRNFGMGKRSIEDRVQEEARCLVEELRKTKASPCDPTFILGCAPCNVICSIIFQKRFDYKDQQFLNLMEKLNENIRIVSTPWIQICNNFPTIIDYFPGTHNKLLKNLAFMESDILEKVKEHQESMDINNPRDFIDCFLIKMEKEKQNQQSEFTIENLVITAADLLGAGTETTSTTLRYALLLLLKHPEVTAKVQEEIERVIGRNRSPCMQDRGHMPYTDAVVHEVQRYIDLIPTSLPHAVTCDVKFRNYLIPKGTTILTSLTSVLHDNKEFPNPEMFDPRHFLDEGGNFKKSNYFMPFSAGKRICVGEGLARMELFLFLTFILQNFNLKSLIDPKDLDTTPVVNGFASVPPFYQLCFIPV
# Cytochrome P450 2C9, sequence (P11712 whole entry): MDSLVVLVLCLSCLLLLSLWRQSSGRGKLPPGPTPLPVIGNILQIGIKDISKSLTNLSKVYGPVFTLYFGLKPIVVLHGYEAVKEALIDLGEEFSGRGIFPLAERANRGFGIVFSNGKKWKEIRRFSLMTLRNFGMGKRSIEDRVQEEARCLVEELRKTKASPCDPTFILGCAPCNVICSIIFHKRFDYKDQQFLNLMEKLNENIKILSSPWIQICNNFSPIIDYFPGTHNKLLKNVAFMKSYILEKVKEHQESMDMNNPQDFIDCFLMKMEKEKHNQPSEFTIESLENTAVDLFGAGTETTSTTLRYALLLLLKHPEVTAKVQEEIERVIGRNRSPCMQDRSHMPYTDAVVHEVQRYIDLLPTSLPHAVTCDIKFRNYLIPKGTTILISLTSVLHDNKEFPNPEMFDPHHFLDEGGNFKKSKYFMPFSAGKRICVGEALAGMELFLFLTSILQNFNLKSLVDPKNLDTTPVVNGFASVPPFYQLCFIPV
# 26S proteasome non-ATPase regulatory subunit 14, sequence (O00487 whole entry): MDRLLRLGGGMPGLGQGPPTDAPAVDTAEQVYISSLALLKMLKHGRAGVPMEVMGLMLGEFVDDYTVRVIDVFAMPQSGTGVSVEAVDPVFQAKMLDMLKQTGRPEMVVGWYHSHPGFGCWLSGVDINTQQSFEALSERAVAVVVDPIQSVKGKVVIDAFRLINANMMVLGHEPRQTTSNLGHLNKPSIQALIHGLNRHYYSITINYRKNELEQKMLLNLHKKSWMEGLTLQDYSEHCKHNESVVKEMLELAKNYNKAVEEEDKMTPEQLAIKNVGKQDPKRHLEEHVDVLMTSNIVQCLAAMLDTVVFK
# 72 kDa type IV collagenase, sequence (P08253 whole entry): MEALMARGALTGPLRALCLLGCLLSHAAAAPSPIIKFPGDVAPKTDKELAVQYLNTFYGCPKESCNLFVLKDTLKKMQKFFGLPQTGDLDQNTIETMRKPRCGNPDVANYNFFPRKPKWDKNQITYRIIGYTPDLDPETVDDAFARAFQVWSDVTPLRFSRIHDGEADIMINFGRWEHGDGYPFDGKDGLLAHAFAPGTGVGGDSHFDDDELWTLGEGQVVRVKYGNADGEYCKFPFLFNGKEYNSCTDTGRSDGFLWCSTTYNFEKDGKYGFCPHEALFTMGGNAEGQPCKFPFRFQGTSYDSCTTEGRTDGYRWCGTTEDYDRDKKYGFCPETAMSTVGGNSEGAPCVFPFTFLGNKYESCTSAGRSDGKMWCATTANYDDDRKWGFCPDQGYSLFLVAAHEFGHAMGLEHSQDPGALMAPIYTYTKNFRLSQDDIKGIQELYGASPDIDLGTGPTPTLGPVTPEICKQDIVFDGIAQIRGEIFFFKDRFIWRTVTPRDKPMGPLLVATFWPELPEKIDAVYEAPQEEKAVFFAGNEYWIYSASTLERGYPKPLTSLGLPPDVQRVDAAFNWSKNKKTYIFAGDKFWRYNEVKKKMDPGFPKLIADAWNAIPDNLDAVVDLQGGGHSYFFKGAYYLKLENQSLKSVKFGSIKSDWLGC
# Large T antigen, sequence (P03070 whole entry, the tested form may be a part): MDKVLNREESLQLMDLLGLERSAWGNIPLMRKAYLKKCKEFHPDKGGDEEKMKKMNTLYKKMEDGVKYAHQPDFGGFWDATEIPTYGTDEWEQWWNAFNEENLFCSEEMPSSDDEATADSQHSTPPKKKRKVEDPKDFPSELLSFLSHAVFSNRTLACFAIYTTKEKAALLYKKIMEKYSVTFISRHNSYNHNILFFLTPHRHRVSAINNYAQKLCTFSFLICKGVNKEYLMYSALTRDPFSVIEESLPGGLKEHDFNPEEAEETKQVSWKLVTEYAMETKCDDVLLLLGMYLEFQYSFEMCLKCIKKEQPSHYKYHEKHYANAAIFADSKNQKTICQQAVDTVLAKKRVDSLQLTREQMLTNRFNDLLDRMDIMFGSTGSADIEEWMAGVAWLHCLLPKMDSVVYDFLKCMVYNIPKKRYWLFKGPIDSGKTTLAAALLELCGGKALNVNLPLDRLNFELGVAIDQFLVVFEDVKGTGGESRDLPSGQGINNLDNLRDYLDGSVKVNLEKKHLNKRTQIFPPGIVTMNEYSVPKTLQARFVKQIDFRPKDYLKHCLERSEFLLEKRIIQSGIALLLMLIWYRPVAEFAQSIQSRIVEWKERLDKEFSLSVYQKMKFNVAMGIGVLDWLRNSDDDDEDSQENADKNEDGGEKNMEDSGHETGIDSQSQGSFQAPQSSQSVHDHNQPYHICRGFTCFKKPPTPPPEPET
smiles,measurement,setting,value
Cc1ccc(/C=C/c2nnc(-c3cccs3)o2)cc1,IC50,[1],2 µM (active)
same,IC50,[2],1.7 µM (active)
same,IC50,[3],24.3 µM (active)
same,IC50,[4],> 100 µM (inactive)
same,AC50,Cytochrome P450 2D6,25.1 µM (inconclusive)
same,IC50,Caspase-3 [5],> 100 µM (inactive)
same,AC50,Cytochrome P450 2C9,10 µM (inconclusive)
same,IC50,[6],> 100 µM (inactive)
same,AC50,Cytochrome P450 2C19,25.1 µM (inconclusive)
same,IC50,Caspase-3 [7],2 µM (active)
same,IC50,[8],2.1 µM (active)
C#CCOCCOCCOCCNc1nc(N2CCN(C(=O)CCCCCCCCCCNC(=O)[C@H](CCCCN)n3cc(C[C@@H](C)CC)nn3)CC2)nc(N2CCN(C(=O)CCCCCCCCCCNC(=O)[C@H](CCCCN)n3cc(C[C@@H](C)CC)nn3)CC2)n1,EC50,Streptokinase A,13.9 µM (active)
same,IC50,[9],16.2 µM (active)
same,IC50,Prothrombin,24.5 µM (active)
same,EC50,Insulin-degrading enzyme [10],9.71 µM (active)
same,IC50,HEK293 [11],4.19 µM (active)
same,EC50,HEK293 [12],> 54.7 µM (inactive)
same,EC50,Streptococcus,> 150 µM (not active)
same,IC50,[13],> 100 µM (inactive)
same,EC50,Insulin-degrading enzyme [14],> 2.03 µM (active)
same,EC50,[15],2.86 µM (active)
same,IC50,Large T antigen,36.5 µM (active)
same,IC50,CHO,5.63 µM (active)
